Experiments:
Bacillus subtilis = type: cell-based
Escherichia coli = type: cell-based

For “tachyplesin I (KWCFRVCYRGICYRRCR; not fully specified; Tachyplesin-1; UniProt P14213 24-40, looked up) [TPI-1]”, the “MIC against B. subtilis” value (Bacillus subtilis) was 4 µg/mL and the “MIC against E.coli” value (Escherichia coli) was 4 µg/mL.

From publication PMC8163063 (Chemical Science, 2020)
